Assay results: ChEMBL document CHEMBL5257023, “Identification of leads for antiproliferative activity on MDA-MB-435 human breast cancer cells through pharmacophore and CYP1A1-mediated metabolism” (Eur J Med Chem, 2016)

Assays:
MCF7 [1] = experiment: Anticancer activity against human MCF7 cells assessed as inhibition of cell growth incubated for 48 hrs by SRB assay; format: functional; settings: for CC50: read-out: LC50 (the source's name)
MDA-MB-468 [2] = experiment: Anticancer activity against human MDA-MB-468 cells assessed as cell growth at 100 uM incubated for 48 hrs by SRB assay; format: functional; settings: read-out: Activity
NCI-H226 [3] = experiment: Anticancer activity against human NCI-H226 cells assessed as inhibition of cell growth incubated for 48 hrs by SRB assay; format: functional
MCF7 [4] = experiment: Anticancer activity against human MCF7 cells assessed as cell growth at 0.1 uM incubated for 48 hrs by SRB assay; format: functional; settings: read-out: Activity
MDA-MB-468 [5] = experiment: Anticancer activity against human MDA-MB-468 cells assessed as cell growth at 0.1 uM incubated for 48 hrs by SRB assay; format: functional; settings: read-out: Activity
CYP1A1 [6] = target: T1, CYP1A1 (Homo sapiens, UniProt P04798); experiment: Inhibition of recombinant CYP1A1 (unknown origin) assessed as residual enzyme activity using 7-ethoxyresorufin as substrate at 50 uM incubated for 15 mins by resorufin dye based spectrofluorimetry (reference value: 100%); format: ADME; settings: recombinant CYP1A1, probe 7-ethoxyresorufin, read-out: Activity
T1 sequence (P04798 whole entry): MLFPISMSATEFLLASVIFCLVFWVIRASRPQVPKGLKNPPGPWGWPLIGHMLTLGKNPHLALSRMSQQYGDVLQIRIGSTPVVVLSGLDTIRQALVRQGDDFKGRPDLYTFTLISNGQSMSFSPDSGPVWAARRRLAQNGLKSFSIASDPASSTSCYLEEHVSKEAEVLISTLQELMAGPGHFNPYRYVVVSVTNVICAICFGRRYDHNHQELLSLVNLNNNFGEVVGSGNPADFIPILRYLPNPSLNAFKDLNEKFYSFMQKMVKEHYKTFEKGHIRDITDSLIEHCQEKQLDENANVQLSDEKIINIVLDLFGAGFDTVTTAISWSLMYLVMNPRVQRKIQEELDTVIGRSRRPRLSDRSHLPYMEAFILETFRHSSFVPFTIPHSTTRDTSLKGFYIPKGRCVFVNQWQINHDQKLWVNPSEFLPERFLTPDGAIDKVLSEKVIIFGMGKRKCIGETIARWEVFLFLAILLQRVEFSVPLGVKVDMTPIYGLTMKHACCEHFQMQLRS

MDA-MB-435 [7] = experiment: Anticancer activity against human MDA-MB-435 cells assessed as cell growth at 0.1 uM incubated for 48 hrs by SRB assay; format: functional; settings: read-out: Activity
NCI-H226 [8] = experiment: Anticancer activity against human NCI-H226 cells assessed as cell growth at 1 uM incubated for 48 hrs by SRB assay; format: functional; settings: read-out: Activity
MCF7 [9] = experiment: Anticancer activity against human MCF7 cells assessed as cell growth at 10 uM incubated for 48 hrs by SRB assay; format: functional; settings: read-out: Activity
NCI-H226 [10] = experiment: Anticancer activity against human NCI-H226 cells assessed as cell growth at 0.1 uM incubated for 48 hrs by SRB assay; format: functional; settings: read-out: Activity
CYP1A1 [11] = target: T1, CYP1A1; experiment: Inhibition of recombinant CYP1A1 (unknown origin) assessed as residual enzyme activity using 7-ethoxyresorufin as substrate at 100 uM incubated for 15 mins by resorufin dye based spectrofluorimetry (reference value: 100%); format: ADME; settings: recombinant CYP1A1, probe 7-ethoxyresorufin, read-out: Activity
NCI-H226 [12] = experiment: Anticancer activity against human NCI-H226 cells assessed as cell growth at 10 uM incubated for 48 hrs by SRB assay; format: functional; settings: read-out: Activity
CYP1A1 [13] = target: T1, CYP1A1; experiment: Inhibition of recombinant CYP1A1 (unknown origin) assessed as residual enzyme activity using 7-ethoxyresorufin as substrate at 5 uM incubated for 15 mins by resorufin dye based spectrofluorimetry (reference value: 100%); format: ADME; settings: recombinant CYP1A1, probe 7-ethoxyresorufin, read-out: Activity
CYP1A1 [14] = target: T1, CYP1A1; experiment: Inhibition of recombinant CYP1A1 (unknown origin) assessed as residual enzyme activity using 7-ethoxyresorufin as substrate at 1 uM incubated for 15 mins by resorufin dye based spectrofluorimetry (reference value: 100%); format: ADME; settings: recombinant CYP1A1, probe 7-ethoxyresorufin, read-out: Activity
MDA-MB-435 [15] = experiment: Anticancer activity against human MDA-MB-435 cells assessed as cell growth at 1 uM incubated for 48 hrs by SRB assay; format: functional; settings: read-out: Activity
CYP1A1 [16] = target: T1, CYP1A1; experiment: Inhibition of recombinant CYP1A1 (unknown origin) assessed as residual enzyme activity using 7-ethoxyresorufin as substrate at 0.1 uM incubated for 15 mins by resorufin dye based spectrofluorimetry (reference value: 100%); format: ADME; settings: recombinant CYP1A1, probe 7-ethoxyresorufin, read-out: Activity
MDA-MB-468 [17] = experiment: Anticancer activity against human MDA-MB-468 cells assessed as inhibition of cell growth incubated for 48 hrs by SRB assay; format: functional; settings: for CC50: read-out: LC50 (the source's name)
NCI-H226 [18] = experiment: Anticancer activity against human NCI-H226 cells assessed as cell growth at 100 uM incubated for 48 hrs by SRB assay; format: functional; settings: read-out: Activity
Cytochrome P450 1A1 = target: T2, Cytochrome P450 1A1 (Homo sapiens, UniProt P04798); experiment: Inhibition of recombinant CYP1A1 (unknown origin) assessed as decrease in EROD activity using 7-ethoxyresorufin as substrate incubated for 15 mins by resorufin dye based spectrofluorimetry; format: ADME
T2 sequence (P04798 whole entry): T1 sequence (P04798 whole entry)

MDA-MB-468 [19] = experiment: Anticancer activity against human MDA-MB-468 cells assessed as cell growth at 10 uM incubated for 48 hrs by SRB assay; format: functional; settings: read-out: Activity
MDA-MB-435 [20] = experiment: Anticancer activity against human MDA-MB-435 cells assessed as cell growth at 100 uM incubated for 48 hrs by SRB assay; format: functional; settings: read-out: Activity
MCF7 [21] = experiment: Anticancer activity against human MCF7 cells assessed as cell growth at 1 uM incubated for 48 hrs by SRB assay; format: functional; settings: read-out: Activity
CYP1A1 [22] = target: T1, CYP1A1; experiment: Inhibition of recombinant CYP1A1 (unknown origin) assessed as residual enzyme activity using 7-ethoxyresorufin as substrate at 0.01 uM incubated for 15 mins by resorufin dye based spectrofluorimetry (reference value: 100%); format: ADME; settings: recombinant CYP1A1, probe 7-ethoxyresorufin, read-out: Activity
MCF7 [23] = experiment: Anticancer activity against human MCF7 cells assessed as cell growth at 100 uM incubated for 48 hrs by SRB assay; format: functional; settings: read-out: Activity
MDA-MB-435 [24] = experiment: Anticancer activity against human MDA-MB-435 cells assessed as inhibition of cell growth incubated for 48 hrs by SRB assay; format: functional
MDA-MB-435 [25] = experiment: Anticancer activity against human MDA-MB-435 cells assessed as cell growth at 10 uM incubated for 48 hrs by SRB assay; format: functional; settings: read-out: Activity
MDA-MB-468 [26] = experiment: Anticancer activity against human MDA-MB-468 cells assessed as cell growth at 1 uM incubated for 48 hrs by SRB assay; format: functional; settings: read-out: Activity

Structure (SMILES) | GI50 (MCF7 [1]) | TGI (MCF7 [1]) | CC50 (MCF7 [1]) | growth at 100 µM (MDA-MB-468 [2]) | GI50 (NCI-H226 [3]) | LC50 (concentration killing 50% of cells) (NCI-H226 [3]) | TGI (NCI-H226 [3]) | growth at 0.1 µM (MCF7 [4]) | growth at 0.1 µM (MDA-MB-468 [5]) | activity at 0.25 h, 50 µM (CYP1A1 [6]) | growth at 0.1 µM (MDA-MB-435 [7]) | growth at 1 µM (NCI-H226 [8]) | growth at 10 µM (MCF7 [9]) | growth at 0.1 µM (NCI-H226 [10]) | activity at 0.25 h, 100 µM (CYP1A1 [11]) | growth at 10 µM (NCI-H226 [12]) | activity at 0.25 h, 5 µM (CYP1A1 [13]) | growth at 1 µM (MDA-MB-435 [15]) | activity at 0.25 h, 0.1 µM (CYP1A1 [16]) | GI50 (MDA-MB-468 [17]) | also measured
Nc1cc(-c2cc3cc(F)ccc3[nH]2)ccc1F | 69.5 µM | > 100 µM | > 100 µM | -14.4% | 62.3 µM | > 100 µM | > 100 µM | 68.2% | 100% | 18.3% | 29.5% | 83.2% | 55% | 97.7% | 17.5% | 63% | 22.4% | 21.5% | 60.9% | 36.5 µM | activity at 0.25 h, 1 µM (CYP1A1 [14]): 39.8%; TGI (MDA-MB-468 [17]): 84.7 µM; CC50 (MDA-MB-468 [17]): > 100 µM; growth at 100 µM (NCI-H226 [18]): 30.2%; IC50 (Cytochrome P450 1A1): 0.3 µM; growth at 10 µM (MDA-MB-468 [19]): 50%; growth at 100 µM (MDA-MB-435 [20]): 14.9%; growth at 1 µM (MCF7 [21]): 63.9%; activity at 0.25 h, 0.01 µM (CYP1A1 [22]): 76.5%; growth at 100 µM (MCF7 [23]): 44.5%; GI50 (MDA-MB-435 [24]): < 0.1 µM; LC50 (MDA-MB-435 [24]): > 100 µM; TGI (MDA-MB-435 [24]): > 100 µM; growth at 10 µM (MDA-MB-435 [25]): 17.7%; growth at 1 µM (MDA-MB-468 [26]): 96.4%
Cc1cc(C)n2ncc(C(=O)NCc3ccc(Cl)cc3)c2n1 | 57.7 µM | > 100 µM | > 100 µM | 23.6% | > 100 µM | > 100 µM | > 100 µM | 90.1% | 90.9% | 64.7% | 100% | 87.8% | 80.4% | 90.9% | 50.8% | 82.6% | 71.8% | 99.9% | 89.8% | 58.5 µM | TGI (MDA-MB-468 [17]): > 100 µM; CC50 (MDA-MB-468 [17]): > 100 µM; growth at 100 µM (NCI-H226 [18]): 58.3%; IC50 (Cytochrome P450 1A1): 10 µM; growth at 10 µM (MDA-MB-468 [19]): 77.6%; growth at 100 µM (MDA-MB-435 [20]): 70%; growth at 1 µM (MCF7 [21]): 88.2%; activity at 0.25 h, 0.01 µM (CYP1A1 [22]): 98.7%; growth at 100 µM (MCF7 [23]): 20.6%; GI50 (MDA-MB-435 [24]): > 100 µM; LC50 (MDA-MB-435 [24]): > 100 µM; TGI (MDA-MB-435 [24]): > 100 µM; growth at 10 µM (MDA-MB-435 [25]): 98.1%; growth at 1 µM (MDA-MB-468 [26]): 82.6%
